# According to patent US20120010176A1, “UTROPHIN PROMOTER ACTIVITY UPREGULATION FOR THE TREATMENT OF MUSCULAR DYSTROPHY” (priority 2008, published 2012):
# Structures can show the parent of a compound that is named as a salt.
# Columns and labels:
# utrophin promoter [1] = test: utrophin promoter-luciferase reporter screen, 384-well format; format: cell-based; conditions: C2C12utrn cells; for maximal fold induction: 24 h, read-out: Max. fold change
# Description: (§1) The ability of test compounds to upregulate activity of the utrophin promoter was determined using the muscle cell line C2C12utrn, which contains the utrophin gene promoter linked to the protein-encoding sequence for luciferase. Using these cells, a chemical library was screened for compounds that activate the utrophin promoter. Light production was the readout.
# In the first screening, 384-well plates were used to grow C2C12 […] cells and expose to test compounds. Cells were exposed to test compounds at a single concentration for 24 hours, wherein 19 compounds of 1120 tested produced an increase of at least 20% of the activity of the luciferase reporter.
# Subsequently, the 19 compounds were rescreened at 15 different concentrations.
# utrophin promoter [2] = test: utrophin promoter-luciferase reporter assay, 96-well format; format: cell-based; conditions: for maximal fold induction: read-out: Max. fold change; for dose-dependent activation of the utrophin promoter: range of concentrations, 96-well plate format, FIGS. 1 and 2
# Description: as §1
# In some cases compounds were tested at a range of concentrations on test cells in a 96-well plate format.
# utrophin A mRNA = utrophin A mRNA upregulation in C2C12 muscle cells (TaqMan qPCR); format: cell-based; conditions: either in serum-containing or serum-free media, FIG. 4
# Description: In a further experiment, the activity of kawain, equilin and nabumetone were evaluated in C2C12 muscle cells for upregulation of utrophin A mRNA (FIG. 3). C2C12 muscle cells were treated with optimal doses of compounds (based on previous dose-response data) for 24 hours, either in the presence of serum or in the absence of serum (following 24 hours of serum starvation). Trichostatin A and heregulin were used as positive controls for utrophin upregulation in the presence (trichostatin A) or absence (heregulin) of serum. Utrophin A mRNA was measured using a TaqMan qPCR assay and normalised to 18S rRNA. Data are presented as fold-changes in utrophin A mRNA compared to DMS O-only controls (compounds) or media-only controls (trichostatin A and heregulin).
# Additional experiments were performed in C2C12 cells. […] C2C12 cells were treated with Prestwick compounds A, J, L and S plus TSA and heregulin (HRG) as positive controls.
# mice = test: in vivo treatment of mice: muscle weights and muscle function
# Text: In vivo experiments were perfomed in mice by treating with nabumetone. […] Soleus, gastrocnemius (gastroc), tibialis anterior (TA) and quadriceps (quads) were bigger in treated mice. […] There was no difference in whole body weight between treatment groups.
# [3] = 96-well format, C2C12utrn cells, luciferase readout
Compound,maximal fold induction (utrophin promoter [1]; luciferase readout),maximal fold induction (utrophin promoter [2]; [3]),dose-dependent activation of the utrophin promoter (utrophin promoter [2]),other results
"C#CCN(C)CCCOc1ccc(Cl)cc1Cl [clorgyline HCl, N-[3-(2,4-dichlorophenoxy)propyl]-N-methylprop-2-yn-1-amine]",1.16,1.9,dose-dependent activation,
"Nc1ccc(/N=N/c2ccccc2)c(N)n1 [phenazopyridine HCl, 3-phenyldiazenylpyridine-2,6-diamine]",1.62,2.6,dose-dependent activation,
"c1ccc2[nH]c(-c3cscn3)nc2c1 [tiabendazole, 2-(1,3-thiazol-4-yl)-1H-benzoimidazole]",1.86,2.1,dose-dependent activation,
"Nc1nc2ccc(OC(F)(F)F)cc2s1 [riluzole HCl, 6-(trifluoromethoxy)benzothiazol-2-amine]",1.56,2.2,dose-dependent activation,
"C[C@]12CC[C@H]3C(=CCc4cc(O)ccc43)[C@@H]1CCC2=O [equilin, 3-hydroxy-13-methyl-9,11,12,14,15,16-hexahydro-6H-cylcopenta(a)phenanthren-17-one]",1.6,3.4,dose-dependent activation,
heregulin,,,,levels of endogenous utrophin A mRNA (utrophin A mRNA): increased
"O=c1cc(-c2ccccc2)oc2cc(O)cc(O)c12 [chrysin, 5,7-dihydroxy-2-phenyl-4H-chromen-4-one]",1.5,3.4,dose-dependent activation,
"COc1ccc2cc(CCC(C)=O)ccc2c1 [nabumetone, 4-(6-methoxy-2-naphthyl)-2-butanone]",1.56,2.5,dose-dependent activation,"whole body weight between treatment groups (mice; mice, FIG. 5): no difference; muscle weight, EDL (mice; treated mice, FIG. 5): not significantly bigger; muscle weight, gastrocnemius (gastroc) (mice; treated mice, FIG. 5, p<0.05): bigger; muscle weight, quadriceps (quads) (mice; treated mice, FIG. 5, p<0.05): bigger; muscle weight, soleus (mice; treated mice, FIG. 5, p<0.05): bigger; muscle weight, tibialis anterior (TA) (mice; treated mice, FIG. 5, p<0.05): bigger; force generating capacity (mice; treated muscles, FIG. 6): trend towards increased; peak specific twitch force (mice; treated muscles, FIG. 6, p<0.05): significantly increased; force drop on eccentric contraction (mice; treated muscles, FIG. 6, trend): decreased"
"O=C(/C=C/C=C/c1ccc2c(c1)OCO2)N1CCCCC1 [piperine, 1-[5-(1,3-benzodioxol-5-yl)-1-oxo-2,4-pentadienyl]piperidine]",1.59,2.3,dose-dependent activation,
"COC1=CC(=O)O[C@@H](/C=C/c2ccccc2)C1 [kawain, [R-(E)]-5,6-dihydro-4-methoxy-6-(2-phenylethenyl)-2H-pyran-2-one]",,,dose-dependent activation,"Optimal dose (utrophin promoter [1]): 10 µM; Max. fold change (utrophin promoter [1]; luciferase readout): 1.37; Optimal dose (utrophin promoter [2]; 96-well format, C2C12utrn cells): 20 µM; Max. fold change (utrophin promoter [2]; [3]): 2.5"
"COc1ccc([C@@H]2CC(=O)c3c(O)cc(O)cc3O2)cc1O [hesperetin, (S)-2,3-dihydro-5,7-dihydroxy-2-(3-hydroxy-4-methoxyphenyl)-4H-1-benzopyran-4-one]",1.94,2.9,dose-dependent activation,
"Oc1ccc(/C=C/c2cc(O)cc(O)c2)cc1 [resveratrol, trans-3,4′,5-trihydroxystilbene]",1.62,2.2,dose-dependent activation,
"Cc1oncc1C(=O)Nc1ccc(C(F)(F)F)cc1 [leflunomide, 5-methyl-N-[4-(trifluoromethyl)phenyl]isoxazole-4-carboxamide]",1.38,2.9,dose-dependent activation,
"CC(/C=C/C(=O)NO)=C\[C@@H](C)C(=O)c1ccc(N(C)C)cc1 [TSA, Trichostatin A]",,,,levels of endogenous utrophin A mRNA (utrophin A mRNA): increased
"O=c1cc(-c2ccc(O)cc2)oc2cc(O)cc(O)c12 [apigenin, 5,7-dihydroxy-2-(4-hydroxyphenyl)-4H-1-benzopyran-4-one]",1.54,3.5,dose-dependent activation,
